Measurements taken from US20260271949A1, “PHOTOSENSITIZER COMPOSITIONS, DEVICES, AND METHODS OF USE FOR SURFACE SANITIZATION OF PROCESSED FOOD PRODUCTS” (ONDINE INTERNATIONAL AG, priority 2023, published 2026).

Tests used:
S. enterica biofilms [1] = experiment: Quantitative determination of MBEC (Log10 reduction assay); type: cell-based, Salmonella enterica; conditions: for concentration of optimal efficacy: S. enterica biofilm; for Quant. MBEC / log 10 reduction in biofilm CFUs: S. enterica; for Quant. MBEC: >3 log10 reduction or max kill, PS alone, Blue 470 nm (Erythrosin B: Green 527 nm)
Method: (§1) One hundred microlitres was removed from each well of row A of the recovery plate into row A of an appropriately labelled 96-well dilution plate; 100 μL was removed from row B of this recovery plate into row A of another 96-well dilution plate. This was repeated for other utilized MBEC rows (total: up to 8 dilution plates per MBEC recovery plate). These plates were kept for the “Quantitative Determination of MBEC (Log10 Reduction Assay)” described below.
(§2) 180 μL of sterile 0.9% saline was added to each well of rows B-H of the 96-well dilution plates prepared as described above. The sample in row A was then serially diluted in the saline in rows B-H and spot plated on OSA.
(§3) The quantitative MBEC was defined as the minimum concentration of test article that yielded a particular log 10 reduction in biofilm CFUs. For MRSA, >4 log 10 reduction (which corresponds to >99.99% reduction); for S. enterica, >3 log 10 reduction (which corresponds to >99.9% reduction) or, where recovery from the VC controls was <3 log 10, “max kill”.
(§4) Quantitative MBEC results were determined using log 10 reduction. Generally, the appropriate number of colonies were counted on the spot plates according to the plating method used. An appropriate number of colonies that was considered appropriate for counting was a 20 μL spot where the individual colonies were visibly distinct from each other within the plated spot (typically 5-50 colonies). The section in which this spot was located gave the order of magnitude for the cell enumeration: 100-107.

S. enterica biofilms [2] = experiment: MBEC (turbidity assay), biofilm recovery plate; type: cell-based, Salmonella enterica; conditions: Blue 470 nm (Erythrosin B: Green 527 nm)
Method: (§5) The saturated bacterial cultures were diluted 1:10,000 to an approximate density of 10^5 CFU/mL. Density was confirmed by an inoculum check. The inoculum was poured into a sterile reagent reservoir. Using a multi-channel pipette, 200 μL of the ~105 inoculum was added to each well from rows A to G of the MBEC™ device, as indicated in FIGS. 2A-2C (12 devices per organism were tested; 4 devices per study day), 200 μL of OSB was added to row H to act as sterility controls (SC). The pegged lid was then placed into the microtiter plate and sealed in a plastic bag.
(§6) The pegs of the MBEC lid were rinsed for 120 seconds.
(§7) Using additional sterile 96-well receiver plates, recovery plates were prepared (one per MBEC lid) containing 225 μL per well of the neutralizer/recovery broth, as described above. The MBEC lids were transferred to the recovery broth, and the plates (with the pegged lids) were transferred into a stainless-steel insert tray, which sat in the water of a bath sonicator. Sonication was performed on high for 30 minutes to dislodge surviving biofilm. The pegged lid was then removed and discarded.
(§8) 125 μL of OSB was added to each well of the recovery plates to top back up to 225 µL per well. The contents of the wells were mixed by pipetting up and down.

MRSA biofilms [3] = experiment: MBEC (turbidity assay), biofilm recovery plate; type: cell-based, Staphylococcus aureus; conditions: Blue 470 nm (Erythrosin B: Green 527 nm)
Method: as §5, §6, §7, §8

[4] = test system: Salmonella enterica Serotype Choleraesuis (ATCC 10708); experiment: Planktonic MBC (turbidity assay), MBEC Assay challenge plate outgrowth; type: cell-based; conditions: S. enterica, PS alone, Blue 470 nm (Erythrosin B: Green 527 nm)
MRSA biofilms [5] = experiment: Quantitative determination of MBEC (Log10 reduction assay); type: cell-based, Staphylococcus aureus; conditions: for concentration of optimal efficacy: MRSA biofilm; for Quant. MBEC / log 10 reduction in biofilm CFUs: MRSA; for Quant. MBEC: >4 log10 reduction, PS alone, Blue 470 nm (Erythrosin B: Green 527 nm)
Method: as §1, §2, §3, §4

[6] = test system: Staphylococcus aureus (MRSA) 456 S. Yanke; experiment: Planktonic MBC (turbidity assay), MBEC Assay challenge plate outgrowth; conditions: Blue 470 nm (Erythrosin B: Green 527 nm)
[7] = Coloration of challenge plates under green irradiation; type: physicochemical; conditions: green irradiation 2, 5, 10 min vs dark, most evident for 0.01% and 0.001%
Method: FIG. 5 provides representative photographs showing coloration of challenge plates for the Green-irradiated PS (Erythrosin B) under dark conditions and with green irradiation for 2 min, 5 min and 10 min. The highest tested concentration of Erythrosin B (i.e., 1% w/v) was beet red in color, with the 1:1,000 dilution (i.e., 0.001% w/v) yielding a light pink color and minimal coloration remaining by the 1:10,000 dilution (i.e., 0.0001% w/V) (FIG. 5; left).

[8] = Blue-irradiated, tested individually (FIG. 7 Panels A-C)
[9] = fluence 0 (Dark) J/cm^2, PS alone
[10] = Blue-irradiated, tested individually (FIG. 8 Panels A-C)
[11] = PS at 0.01%, 10 minutes of green irradiation (51.0 J/cm^2)
[12] = PS at 0.1%, 5 minutes of green irradiation (25.5 J/cm^2)
[13] = PS at 0.1%, 5 minutes of blue irradiation (51.0 J/cm^2)

Structure (SMILES)	concentration of optimal efficacy (S. enterica biofilms [1]; [8])	Quant. MBEC (S. enterica biofilms [1]; fluence 0 (Dark) J/cm^2)	Quant. MBEC (S. enterica biofilms [1]; fluence 10.2 J/cm^2)	Quant. MBEC (S. enterica biofilms [1]; fluence 25.5 J/cm^2)	Quant. MBEC (S. enterica biofilms [1]; fluence 51.0 J/cm^2)	MBEC (S. enterica biofilms [2]; [9])	MBEC (S. enterica biofilms [2]; fluence 10.2 J/cm^2, PS alone)	MBEC (S. enterica biofilms [2]; fluence 25.5 J/cm^2, PS alone)	MBEC (MRSA biofilms [3]; [9])	MBEC (MRSA biofilms [3]; fluence 10.2 J/cm^2, PS alone)	MBEC (MRSA biofilms [3]; fluence 25.5 J/cm^2, PS alone)	MBC ([4]; fluence 0 (Dark) J/cm^2)	MBC ([4]; fluence 10.2 J/cm^2)	MBC ([4]; fluence 25.5 J/cm^2)	concentration of optimal efficacy (MRSA biofilms [5]; [10])	Quant. MBEC (MRSA biofilms [5]; fluence 0 (Dark) J/cm^2)	Quant. MBEC (MRSA biofilms [5]; fluence 10.2 J/cm^2)	Quant. MBEC (MRSA biofilms [5]; fluence 25.5 J/cm^2)	Quant. MBEC (MRSA biofilms [5]; fluence 51.0 J/cm^2)	MBC [6, 9]	other results
O=S(=O)([O-])c1ccc(N=Nc2c(O)ccc3cc(S(=O)(=O)[O-])ccc23)cc1.[Na+].[Na+] [PS2, Sunset Yellow FCF]	0.001 % w/v	>1 % w/V	>1 % w/V	>1 % w/V	0.001 % w/V	>1 % w/V	>1 % w/V	>1 % w/V	>1 % w/V	>1 % w/V	>1 % w/V	>1 % w/V	>1 % w/V	>1 % w/V	0.01 % w/v	>1 % w/V	>1 % w/V	>1 % w/V	0.01 % w/V	>1 % w/V	MBC ([6]; fluence 10.2 J/cm^2, PS alone): >1 % w/V; MBC ([6]; fluence 25.5 J/cm^2, PS alone): >1 % w/V
O=C1OC2(c3ccccc31)c1cc(I)c(O)c(I)c1Oc1c2cc(I)c(O)c1I [PS4, Erythrosin B]	–	>1 % w/V	>1 % w/V	0.1 % w/V	0.01 % w/V	>1 % w/V	0.01 (Ø) % w/V	0.01 (Ø) % w/V	>1 % w/V	–	–	>1 % w/V	0.01 (Ø) % w/V	–	–	>1 % w/V	0.01 % w/V	–	–	–	concentration of optimal efficacy (S. enterica biofilms [1]; Green irradiation, 51.0 J/cm^2 (FIG. 9)): 0.01%; log 10 reduction in biofilm CFUs (S. enterica biofilms [1]; [11]): max kill; log 10 reduction in biofilm CFUs (S. enterica biofilms [1]; [12]): max kill; concentration of optimal efficacy (MRSA biofilms [5]; Green irradiation, 10.2 J/cm^2 (FIG. 9)): 0.01%; concentration of optimal efficacy (MRSA biofilms [5]; Green irradiation, 25.5 J/cm^2 (FIG. 9)): 0.1%; log 10 reduction in biofilm CFUs (MRSA biofilms [5]; [11]): max kill; log 10 reduction in biofilm CFUs (MRSA biofilms [5]; [12]): 5.28 log 10; coloration upon irradiation [7]: lost coloration with increasing irradiation time
Cc1cc2nc3c(=O)[nH]c(=O)nc-3n(C[C@H](O)[C@H](O)[C@H](O)COP(=O)([O-])O)c2cc1C.[Na+] [PS1, Riboflavin-5′-Phosphate Sodium USP]	0.1 % w/v	>1 % w/V	>1 % w/V	>1 % w/V	0.1 % w/V	>1 % w/V	>1 % w/V	>1 % w/V	>1 % w/V	>1 % w/V	>1 % w/V	>1 % w/V	>1 % w/V	>1 % w/V	0.1 % w/v	>1 % w/V	>1 % w/V	>1 % w/V	0.1 % w/V	>1 % w/V	log 10 reduction in biofilm CFUs (S. enterica biofilms [1]; [13]): max kill; MBEC (MRSA biofilms [3]; fluence 51.0 J/cm^2, PS alone): 0.1 (Ø) % w/V; log 10 reduction in biofilm CFUs (MRSA biofilms [5]; [13]): 5.36 log 10; MBC ([6]; fluence 10.2 J/cm^2, PS alone): >1 % w/V; MBC ([6]; fluence 25.5 J/cm^2, PS alone): 0.1 (Ø) % w/V
COc1cc(/C=C/C(=O)CC(=O)/C=C/c2ccc(O)c(OC)c2)ccc1O [PS3, Curcumin]	0.0001 % w/v	>0.001 % w/V	>0.001 % w/V	>0.001 % w/V	0.0001 % w/V	>0.001 % w/V	>0.001 % w/V	>0.001 % w/V	>0.001 % w/V	>0.001 % w/V	>0.001 % w/V	>0.001 % w/V	>0.001 % w/V	>0.001 % w/V	0.001 % w/v	>0.001 % w/V	>0.001 % w/V	>0.001 % w/V	0.001 % w/V	>0.001 % w/V	MBEC (S. enterica biofilms [2]; fluence 51.0 J/cm^2, PS alone): >0.001 % w/V; MBEC (MRSA biofilms [3]; fluence 51.0 J/cm^2, PS alone): >0.001 % w/V; MBC ([4]; fluence 51.0 J/cm^2): >0.001 % w/V; MBC ([6]; fluence 10.2 J/cm^2, PS alone): >0.001 % w/V; MBC ([6]; fluence 25.5 J/cm^2, PS alone): >0.001 % w/V
